US20250154144A1 (CHILDREN'S HOSPITAL MEDICAL CENTER, priority 2021, published 2025)
Changes are numbered by the printed parent chain.

Tests used:
[1] = target: T1, FLT3 ITD (Homo sapiens, UniProt P36888); experiment: DiscoverX KINOMEscan competition binding, FLT3 ITD; details: read-out: FLT3 ITD Kd
T1 sequence (P36888 1-993): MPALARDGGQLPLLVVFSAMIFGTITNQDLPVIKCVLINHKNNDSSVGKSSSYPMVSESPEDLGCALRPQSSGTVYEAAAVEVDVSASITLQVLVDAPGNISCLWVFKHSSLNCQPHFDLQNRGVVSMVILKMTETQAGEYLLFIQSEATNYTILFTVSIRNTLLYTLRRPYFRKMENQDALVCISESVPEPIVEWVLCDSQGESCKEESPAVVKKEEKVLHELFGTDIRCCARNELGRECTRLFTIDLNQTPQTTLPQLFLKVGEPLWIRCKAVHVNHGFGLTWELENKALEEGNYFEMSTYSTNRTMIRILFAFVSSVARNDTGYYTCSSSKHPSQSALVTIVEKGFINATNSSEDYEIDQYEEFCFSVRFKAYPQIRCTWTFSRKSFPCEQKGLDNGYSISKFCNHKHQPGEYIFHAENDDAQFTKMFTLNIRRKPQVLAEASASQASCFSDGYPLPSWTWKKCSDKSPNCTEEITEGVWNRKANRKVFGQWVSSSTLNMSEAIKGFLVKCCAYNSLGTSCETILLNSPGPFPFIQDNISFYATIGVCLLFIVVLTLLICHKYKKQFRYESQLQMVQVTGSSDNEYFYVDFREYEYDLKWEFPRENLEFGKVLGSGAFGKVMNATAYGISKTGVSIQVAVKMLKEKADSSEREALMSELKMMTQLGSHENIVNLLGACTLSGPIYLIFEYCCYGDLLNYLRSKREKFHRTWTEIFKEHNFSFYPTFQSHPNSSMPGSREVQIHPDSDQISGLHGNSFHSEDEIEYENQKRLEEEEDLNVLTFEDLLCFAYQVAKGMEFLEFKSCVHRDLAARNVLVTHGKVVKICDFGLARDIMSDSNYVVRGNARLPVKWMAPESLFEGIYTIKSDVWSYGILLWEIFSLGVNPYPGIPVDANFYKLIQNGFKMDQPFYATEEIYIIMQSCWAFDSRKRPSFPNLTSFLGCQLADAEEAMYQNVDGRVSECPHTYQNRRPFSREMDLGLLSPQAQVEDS

[2] = target: T2, FLT3 ITD, D835V (Homo sapiens, UniProt P36888, D835V, form not given); experiment: DiscoverX KINOMEscan competition binding, FLT3 ITD, D835V; details: read-out: FLT3 ITD, D835V Kd
T2 sequence (P36888 1-993 D835V): T1 sequence (P36888 1-993) with D835V

[3] = target: T3, IRAK4 (Homo sapiens, UniProt Q9NWZ3); experiment: Reaction Biology NanoBRET target engagement assay in HEK-293 cells, IRAK4; details: NanoBRET IRAK4 IC50, HEK-293 cells
T3 sequence (Q9NWZ3 1-460): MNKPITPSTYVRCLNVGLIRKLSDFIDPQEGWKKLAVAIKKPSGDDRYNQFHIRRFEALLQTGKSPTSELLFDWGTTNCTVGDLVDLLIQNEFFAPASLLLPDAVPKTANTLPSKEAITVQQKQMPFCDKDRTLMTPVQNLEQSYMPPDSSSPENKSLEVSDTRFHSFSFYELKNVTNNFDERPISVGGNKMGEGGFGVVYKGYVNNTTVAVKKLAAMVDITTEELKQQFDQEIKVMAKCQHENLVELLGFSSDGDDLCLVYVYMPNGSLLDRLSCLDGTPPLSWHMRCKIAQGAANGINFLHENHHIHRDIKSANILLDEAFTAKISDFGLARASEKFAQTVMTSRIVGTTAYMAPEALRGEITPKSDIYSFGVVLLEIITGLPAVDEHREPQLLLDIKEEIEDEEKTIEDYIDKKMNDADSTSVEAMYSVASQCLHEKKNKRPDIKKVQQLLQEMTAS

[4] = tested on: MOLM14 F691L cells; experiment: cells; format: cell-based; details: Homo sapiens, MOLM-14, 48 h, 48 hours, Cell Titer Glo; read-out: MOLM14 F691L IC50

| Kd [1] [nM] | Kd [2] [nM] | IC50 [3] [nM] | IC50 [4] [nM] | Compound |
| --- | --- | --- | --- | --- |
| 0.87 | 0.035 | 1 | 86 | F[C@H]1CCNC[C@@H]1Nc1cncc(-c2cnc3cc(OC4CC4)ccn23)n1 [Compound 12, 6-(7-cyclopropoxyimidazo[1,2-a]pyridin-3-yl)-N-((3S,4S)-4-fluoropiperidin-3-yl)pyrazin-2-amine] |
| 0.97 | 0.045 | 1 |  | COc1cc2ncc(-c3cncc(N[C@H]4CNCC[C@@H]4F)n3)n2nc1C1CC1 [Compound 24, 6-(6-cyclopropyl-7-methoxyimidazo[1,2-b]pyridazin-3-yl)-N-((3S,4S)-4-fluoropiperidin-3-yl)pyrazin-2-amine] |
| 0.62 | 0.08 | < 0.5 | 433 | CC(O)(c1cn2c(-c3ccnc(N[C@H]4CNCC[C@@H]4F)n3)cnc2cn1)C(F)(F)F (single isomer, unassigned) [Compound 72] |
|  |  |  | 172 | COc1cc2ncc(-c3ccnc(N[C@@H]4CCCNC4)n3)n2nc1C1CC1 [Compound 50, (R)-4-(6-cyclopropyl-7-methoxyimidazo[1,2-b]pyridazin-3-yl)-N-(piperidin-3-yl)pyrimidin-2-amine] |
| 0.67 | 0.058 | 9 |  | COc1cc2ncc(-c3cncc(N[C@H]4CNC[C@@H]4F)n3)n2nc1C1CC1 [Compound 22, 6-(6-cyclopropyl-7-methoxyimidazo[1,2-b]pyridazin-3-yl)-N-((3S,4S)-4-fluoropyrrolidin-3-yl)pyrazin-2-amine] |
| 0.42 | 0.009 | < 0.5 | 86 | COc1cc2ncc(-c3ccnc(N[C@@H]4CCCNC4)n3)n2cc1C(C)(C)O [Compound 44, (R)-2-(7-methoxy-3-(2-(piperidin-3-ylamino)pyrimidin-4-yl)imidazo[1,2-a]pyridin-6-yl)propan-2-ol] |
| 0.59 | 0.04 |  | 307 | COc1cc2ncc(-c3ccnc(N[C@H]4CNC[C@@H]4F)n3)n2nc1C1CC1 [Compound 49, 4-(6-cyclopropyl-7-methoxyimidazo[1,2-b]pyridazin-3-yl)-N-((3S,4S)-4-fluoropyrrolidin-3-yl)pyrimidin-2-amine] |

| Compound | Kd [1] [nM] | Kd [2] [nM] | IC50 [3] [nM] | IC50 [4] [nM] |
| --- | --- | --- | --- | --- |
| COc1cc2ncc(-c3ccnc(N[C@H]4CNCC[C@@H]4F)n3)n2nc1C1CC1 [Compound 51, 4-(6-cyclopropyl-7-methoxyimidazo[1,2-b]pyridazin-3-yl)-N-((3S,4S)-4-fluoropiperidin-3-yl)pyrimidin-2-amine] | 2 | 0.07 | 1 | 122 |
